Data published in paper PMC8148022 (Cancer letters, 2018).

Biological target: T1, breast cancer resistance protein (BCRP) (Homo sapiens, UniProt Q9UNQ0)
T1 sequence (Q9UNQ0 1-655): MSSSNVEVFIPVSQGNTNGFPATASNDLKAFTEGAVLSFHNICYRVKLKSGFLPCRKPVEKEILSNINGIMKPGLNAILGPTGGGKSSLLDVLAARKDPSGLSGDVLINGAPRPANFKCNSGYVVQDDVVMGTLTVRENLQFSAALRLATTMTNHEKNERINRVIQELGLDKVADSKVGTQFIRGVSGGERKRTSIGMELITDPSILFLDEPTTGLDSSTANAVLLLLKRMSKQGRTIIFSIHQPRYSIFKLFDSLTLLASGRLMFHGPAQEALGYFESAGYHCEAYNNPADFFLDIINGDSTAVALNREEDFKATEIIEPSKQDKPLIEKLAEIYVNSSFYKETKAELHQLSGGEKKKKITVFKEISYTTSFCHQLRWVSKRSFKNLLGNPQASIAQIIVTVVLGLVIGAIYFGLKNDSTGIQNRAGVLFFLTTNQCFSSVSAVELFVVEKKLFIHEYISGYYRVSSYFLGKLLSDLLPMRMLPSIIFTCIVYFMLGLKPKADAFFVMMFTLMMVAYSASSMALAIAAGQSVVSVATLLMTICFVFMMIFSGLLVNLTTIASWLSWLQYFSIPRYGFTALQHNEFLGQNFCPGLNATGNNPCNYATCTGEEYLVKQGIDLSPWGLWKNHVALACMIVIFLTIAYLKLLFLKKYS
Test: biochemical

CNC(=O)c1cc(Oc2ccc(NC(=O)Nc3ccc(Cl)c(C(F)(F)F)c3)c(F)c2)ccn1 [regorafenib]
EC50: 3.59 ± 0.42 µM
